Publication PMC5485019 (2017)

Columns and labels:
[1] = test system: F21T (DNA, G4) GGGTTAGGGTTAGGGTTAGGG; assay: FRET melting; settings: 10 mM Li cacodylate, 200 nM DNA
[2] = test system: FMycT (F-Myc-T) (DNA, G4) TTGAGGGTGGGTAGGGTGGGTAA; assay: FRET melting; settings: 1 mM KCl, 99 mM LiCl; 10 mM Li cacodylate; 1 μM ligand, 200 nM DNA
[3] = test system: F21T (DNA, G4) GGGTTAGGGTTAGGGTTAGGG; assay: FRET melting; settings: 10 mM Li cacodylate, 1 μM ligand, 200 nM DNA
[4] = test system: F10T (DNA, hairpin, hexaethylene glycol (HEG, (-CH2CH2O-)6) linker between nucleotides 10 and 11) TATAGCTATATATAGCTATA; assay: FRET melting; settings: 10 mM KCl, 90 mM LiCl; 10 mM Li cacodylate; 1 μM ligand, 200 nM DNA
[5] = test system: telo23 (DNA, G4) TAGGGTTAGGGTTAGGGTTAGGG; assay: ITC; settings: K+ (100 mM potassium phosphate); pH 7.4, 25 °C (298 K); 15 µM DNA; bracket = 68.3 % confidence interval
[6] = test system: F10T (DNA, hairpin, hexaethylene glycol (HEG) linker between nucleotides 10 and 11) TATAGCTATATATAGCTATA; assay: FRET melting; settings: 10 mM KCl, 90 mM LiCl, 10 mM Li cacodylate, 200 nM DNA
[7] = test system: FMycT (F-Myc-T) (DNA, G4) TTGAGGGTGGGTAGGGTGGGTAA; assay: FRET melting; settings: 1 mM KCl, 99 mM LiCl, 10 mM Li cacodylate, 200 nM DNA
[8] = test system: telo23 (DNA, G4) TAGGGTTAGGGTTAGGGTTAGGG; assay: CD titration; settings: Na+ (100 mM sodium phosphate); pH 7.4 (main text 7.2); 4.22 µM DNA; antiparallel shifts towards hybrid
[9] = 10 mM KCl, 90 mM LiCl, 1 μM ligand
[10] = 100 mM NaCl, no stabilization up to 10 μM
[11] = 100 mM NaCl, 1 μM ligand, no stabilization up to 10 μM
[12] = 1 µM ligand, no stabilization up to 10 µM

In the case of `C[n+]1ccc(-c2c3nc(c(-c4cc[n+](C)cc4)c4ccc([nH]4)c(-c4cc[n+](C)cc4)c4nc(c(-c5cc[n+](C)cc5)c5ccc2[nH]5)C=C4)C=C3)cc1`, the “∆Tmax” value [1, 9] is reported as 27.4 ± 0.4 °C.
In the case of `Cn1cc[n+](C[C@H]2O[C@@H](OCCN3C(=O)c4ccc5c6c(ccc(c46)C3=O)C(=O)N(CCO[C@@H]3O[C@H](C[n+]4ccn(C)c4)[C@@H](O)[C@H](O)[C@H]3O)C5=O)[C@H](O)[C@@H](O)[C@@H]2O)c1`, the ΔT max [2] is reported as 0.9±0.7 °C, the ΔT max ([3]; 10 mM KCl, 90 mM LiCl) is reported as 2.9±0.3 °C and the ΔT max [3, 10] is reported as −1.5±0.4 °C. It also gave a ΔT max [4] of 0.1±0.2 °C.
In the case of `Cn1cc[n+](CCCN2C(=O)c3ccc4c5c(ccc(c35)C2=O)C(=O)N(CCC[n+]2ccn(C)c2)C4=O)c1`, the K a [5] is reported as 2.16 (1.85,2.52) × 10^6 M^-1, the ΔT max [2] is reported as 1.8±0.8 °C and the ΔT max ([3]; 10 mM KCl, 90 mM LiCl) is reported as 3.7±0.3 °C. The ΔT max ([3]; 100 mM NaCl) was −0.5±0.4 °C and the ΔT max [4] was 0.1±0.1 °C.
Molecule `CN(C)CCCN1C(=O)c2ccc3c4c(ccc(c24)C1=O)C(=O)N(CCCN(C)C)C3=O` has a ΔT max ([6]; 1 μM ligand) of 1.1±0.1 °C, a ΔT max ([7]; 1 μM ligand) of 3.9±0.2 °C and a ΔT max ([3]; 10 mM KCl, 90 mM LiCl) of 2.3±0.5 °C. The ΔT max ([3]; 100 mM NaCl) was −1.5±0.2 °C.
`CN1CCN(CCCN2C(=O)c3ccc4c5c(ccc(c35)C2=O)C(=O)N(CCCN2CCN(C)CC2)C4=O)CC1` was tested, and the K a [5] was 1.03 (0.865,1.23) × 10^6 M^-1, the ΔT max [2] was 0.5±0.3 °C and the binding [8] was “yes”. It also gave a ΔT max [1, 9] of 9.8±0.6 °C, a ΔT max [1, 11] of −2.3±0.3 °C and a ΔT max [4] of 0.3±0.2 °C.
`Cn1cc[n+](C[C@H]2O[C@H](OCCN3C(=O)c4ccc5c6c(ccc(c46)C3=O)C(=O)N(CCO[C@H]3O[C@H](C[n+]4ccn(C)c4)[C@@H](O)[C@H](O)[C@@H]3O)C5=O)[C@@H](O)[C@@H](O)[C@@H]2O)c1` was tested, and the ΔT max ([6]; 1 µM ligand, 3.2 °C at 10 µM) was −0.1±0.1 °C, the K a [5] was 1.30 (1.02,1.64) × 10^6 M^-1 and the binding [8] was “yes”. The ΔT max [1, 9] was 10.1±0.3 °C, the ΔT max [1, 11] was −1.4±0.3 °C and the ΔT max ([7]; 1 µM ligand, 10.5 °C at 10 µM) was −0.3±0.7 °C.
In the case of `Cn1cc[n+](CCN2C(=O)c3ccc4c5c(ccc(c35)C2=O)C(=O)N(CC[n+]2ccn(C)c2)C4=O)c1`, the ΔT max [2] is reported as 1±0.4 °C, the ΔT max ([3]; 10 mM KCl, 90 mM LiCl) is reported as 1.3±0.4 °C and the ΔT max [3, 10] is reported as −0.6±0.5 °C. For the same molecule, the ΔT max [4] was 0.4±0.2 °C.
Molecule `O=C1c2ccc3c4c(ccc(c24)C(=O)N1CCO[C@@H]1O[C@H](CO)[C@@H](O)[C@H](O)[C@H]1O)C(=O)N(CCO[C@@H]1O[C@H](CO)[C@@H](O)[C@H](O)[C@H]1O)C3=O` has a ΔT max [6, 12] of 0.5±0.2 °C, a ΔT max ([1]; 10 mM KCl, 90 mM LiCl, 1 µM ligand, no stabilization up to 10 µM) of 0.4±0.1 °C and a ΔT max [7, 12] of −0.3±0.4 °C. It also gave a ΔT max [3, 10] of −0.1±0.5 °C.
